Measurements taken from US20240270737A1, “SMALL MOLECULAR INHIBITORS OF STING SIGNALING COMPOSITIONS AND METHODS OF USE” (STINGINN INC., priority 2021, published 2024).

Tested on: IFNβ expression and production
Test: IFNβ expression and production in normal hTERT cells (qPCR, ELISA)
Assay type: cell-based, human
Conditions: ISD transfection
Experimental: The ability of compound W1 administered onto normal hTERT cells to prevent cytosolic DNA from activating STING was assessed (FIGS. 1B-H). […] In addition, the level of STING phosphorylation (STING is phosphorylated following activation) and the subsequent phosphorylation of TBK1, the kinase of IRF3 was assessed. Phosphorylation of TBK1 and IRF3 are required for activation of the type I IFN promoter.
Interferon R Elisa analysis: Interferon R Elisa was performed using either the IFNβ human ELISA Kit from Invitrogen or the Human IFNβ ELISA Kit from PBL Interferon Source following the manufacturer's protocol.
Quantitative Real time PCR (qPCR) Total RNA were reverse-transcribed using M-MLV Reverse Transcriptase (Promega). Real-time PCR was performed using Taqman Gene Expression Assay (Applied Biosystems) for innate immune genes and inflammatory cytokines.

Cc1cc([N+](=O)[O-])ccc1S(=O)(=O)Nc1nc2cc(C(F)(F)F)ccc2[nH]1 [Compound W1, 2-methyl-4-nitro-N-[5-(trifluoromethyl)-1H-1,3-benzodiazol-2-yl]benzene-1-sulfonamide]
IFNβ expression and production: dramatically decreased
